SMILES strings stand for the structures.

This assay concerns human prostate cancer cell lines—LNCaP cells. Description: In vitro mode adjunctive treatment activity assay with Taxol (MTT cell survival). Type of assay: cell-based. The note with it: 2 nM Taxol alone. The method, then: Utilize in vitro filter mode for human prostate cancer cell lines—LNCaP cells. Where human prostate cancer cell lines—LNCaP cells is being cultured in the culture medium which is supplemented by fetalbovine serum for 24 hours, and process cells by Taxol for 72 hours, and then change the culture medium so as to culture it in a new culture medium by adding assay sample for 72 hours, afterwards evaluate the cell survival rate by MIT colorimetric analysis method.
※ The assay analysis of the compositions in accordance with the present invention in effect for suppressing the growth of human prostate cancer cells, wherein it is necessary to compute the cell survival rate for cells in each well of 96-well microplate, afterwards evaluate the cancer cells survival rate by MIT colorimetric analysis method.
※ MTT colorimetric analysis method: MTT is a kind of tertrazolium salt, with a full name of 3-[4,5-Dimenthylthialzol-2-yl]2, 5-diphenyltetrazoliumbromide, which is the yellow dye, capable to be absorbed by live cells and also be reduced to blue color formazan by succinate-tetrazoliumreductase in mitochondrion, which is commonly used for filtering the affection for matters to the growth and proliferation of cells.

`CC(=O)O[C@H]1C(=O)[C@@]2(C)[C@H]([C@H](OC(=O)c3ccccc3)[C@]3(O)C[C@H](OC(=O)[C@H](O)[C@@H](NC(=O)c4ccccc4)c4ccccc4)C(C)=C1C3(C)C)[C@]1(OC(C)=O)CO[C@@H]1C[C@@H]2O` [Taxol]: the “cell survival rate for human prostate cancer cells” value turned out to be 56.4%.

The record behind these values is patent publication US7749546B2, “Composition for effectively suppressing the growth of prostate cancer cell, suppressing the prostatic hyperplasia and its preparation method” (Golden Biotechnology Corp., priority 2004, dated 2010).
